Laboratory results published in publication PMC4132815, “Structure and Function of the Bacterial Heterodimeric ABC Transporter CydDC” (The Journal of Biological Chemistry, 2014).

What was measured:
CydDC (C-His6-CydDC) [1] = molecular target: T1, CydDC (C-His6-CydDC) (Escherichia coli, UniProt P23886+P29018, P29018:INS2NS); experiment: stimulation of ATPase activity (colorimetric Pi release); type: biochemical; details: peak 2 in 0.02% DDM; 5 mM compound; 2 mM ATP, 10 mM MgCl2, pH 7.5, 37 °C; activator
T1 construct: gene cydD; full-length heterodimer (64 + 63 kDa); plasmid pHX100 in E. coli BL21

CydDC (C-His6-CydDC) [2] = molecular target: T1, CydDC (C-His6-CydDC); experiment: as above; type: biochemical

Structure (SMILES)	% of basal ATPase activity at 5 mM (CydDC (C-His6-CydDC) [1])	EC50 (CydDC (C-His6-CydDC) [2])
N[C@@H](Cc1cnc[nH]1)C(=O)O [L-histidine]	Significant changes in ATPase activity were invoked only with thiols and L-histidine	–
N[C@@H](CS)C(=O)O [cysteine]	–	26 ± 3 µM
